Data: PMC3265415, “Fatty acyl-CoA reductases of birds” (BMC Biochemistry, 2011)

Assays:
Experiment in all cases: radio-TLC assay of yeast membrane fraction (alcohols + aldehydes)
Type in all cases: biochemical
AdFAR1 = molecular target: T1, AdFAR1 (Anser anser, UniProt G9IBF1); conditions: pH 6.5, 37 C
T1 construct: gene FAR1; full-length cDNA from uropygial gland in pYES-DEST52 (primer keeps stop codon); S. cerevisiae BY4741 dga1 lro1 membranes
T1 sequence (G9IBF1 1-515): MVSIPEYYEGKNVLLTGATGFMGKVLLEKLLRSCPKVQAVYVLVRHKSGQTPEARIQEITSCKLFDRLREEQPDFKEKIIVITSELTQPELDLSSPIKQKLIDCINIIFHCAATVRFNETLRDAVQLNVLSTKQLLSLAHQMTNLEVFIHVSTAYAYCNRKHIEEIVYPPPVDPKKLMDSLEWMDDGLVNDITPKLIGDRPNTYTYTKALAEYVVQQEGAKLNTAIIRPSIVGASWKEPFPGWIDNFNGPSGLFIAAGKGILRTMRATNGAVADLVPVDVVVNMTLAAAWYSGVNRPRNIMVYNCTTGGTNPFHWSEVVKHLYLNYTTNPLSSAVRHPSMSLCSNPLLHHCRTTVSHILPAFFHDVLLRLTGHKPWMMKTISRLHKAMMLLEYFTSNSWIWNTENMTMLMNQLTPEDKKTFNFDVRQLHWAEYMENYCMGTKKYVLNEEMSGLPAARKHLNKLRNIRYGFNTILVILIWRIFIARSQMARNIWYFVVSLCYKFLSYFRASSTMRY

TaFAR1 = molecular target: T2, TaFAR1 (Tyto alba, UniProt G9IBF2); conditions: labelled 16:0-CoA as co-substrate, NADPH varied; pH 6.5, 37 C
T2 construct: gene FAR1; full-length cDNA from uropygial gland in pYES-DEST52 (primer keeps stop codon); expressed in Saccharomyces cerevisiae BY4741 dga1 lro1; total membrane fraction
T2 sequence (G9IBF2 1-515): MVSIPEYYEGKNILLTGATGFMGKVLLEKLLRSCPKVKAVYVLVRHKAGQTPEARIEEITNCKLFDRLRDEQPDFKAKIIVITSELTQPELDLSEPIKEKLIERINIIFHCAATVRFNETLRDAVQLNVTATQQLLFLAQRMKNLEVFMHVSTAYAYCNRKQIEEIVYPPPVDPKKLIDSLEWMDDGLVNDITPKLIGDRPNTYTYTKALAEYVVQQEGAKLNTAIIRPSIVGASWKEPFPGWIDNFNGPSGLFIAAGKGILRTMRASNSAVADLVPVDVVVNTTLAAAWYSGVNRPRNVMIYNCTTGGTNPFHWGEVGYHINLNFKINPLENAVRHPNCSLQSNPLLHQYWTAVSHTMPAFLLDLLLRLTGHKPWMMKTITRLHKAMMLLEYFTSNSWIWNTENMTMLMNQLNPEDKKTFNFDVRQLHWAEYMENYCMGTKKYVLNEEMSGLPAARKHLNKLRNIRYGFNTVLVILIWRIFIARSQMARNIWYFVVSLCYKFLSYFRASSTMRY

GgFAR2 = molecular target: T3, GgFAR2 (Gallus gallus, UniProt A0A3Q2TWV7, V159M/K457R); conditions: labelled acyl-CoA as co-substrate; pH 5.5, 37 C
T3 construct: gene FAR2; uropygial gland cDNA in pYES-DEST52, S. cerevisiae BY4741 dga1 lro1 membranes
T3 sequence (A0A3Q2TWV7 1-515 V159M/K457R): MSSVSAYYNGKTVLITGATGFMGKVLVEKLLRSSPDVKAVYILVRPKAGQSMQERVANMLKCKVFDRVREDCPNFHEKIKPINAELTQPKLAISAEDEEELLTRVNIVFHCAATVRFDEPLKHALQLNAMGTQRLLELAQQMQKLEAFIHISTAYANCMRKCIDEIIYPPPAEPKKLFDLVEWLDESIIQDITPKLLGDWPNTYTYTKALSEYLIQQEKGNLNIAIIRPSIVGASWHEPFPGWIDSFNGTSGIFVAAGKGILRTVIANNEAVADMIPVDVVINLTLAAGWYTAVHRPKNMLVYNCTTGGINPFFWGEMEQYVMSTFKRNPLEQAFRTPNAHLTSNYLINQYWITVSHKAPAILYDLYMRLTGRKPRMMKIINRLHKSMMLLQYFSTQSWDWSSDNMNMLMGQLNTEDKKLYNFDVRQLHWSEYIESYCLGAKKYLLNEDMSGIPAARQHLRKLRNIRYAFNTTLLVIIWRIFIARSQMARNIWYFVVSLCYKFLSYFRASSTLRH

TaFAR2 = molecular target: T4, TaFAR2 (Tyto alba, UniProt G9IBF3); conditions: labelled 18:0-CoA as co-substrate; pH 5.5, 37 C
T4 construct: gene FAR2; full-length cDNA from uropygial gland in pYES-DEST52 (primer keeps stop codon); expressed in Saccharomyces cerevisiae BY4741 dga1 lro1; total membrane fraction
T4 sequence (G9IBF3 1-515): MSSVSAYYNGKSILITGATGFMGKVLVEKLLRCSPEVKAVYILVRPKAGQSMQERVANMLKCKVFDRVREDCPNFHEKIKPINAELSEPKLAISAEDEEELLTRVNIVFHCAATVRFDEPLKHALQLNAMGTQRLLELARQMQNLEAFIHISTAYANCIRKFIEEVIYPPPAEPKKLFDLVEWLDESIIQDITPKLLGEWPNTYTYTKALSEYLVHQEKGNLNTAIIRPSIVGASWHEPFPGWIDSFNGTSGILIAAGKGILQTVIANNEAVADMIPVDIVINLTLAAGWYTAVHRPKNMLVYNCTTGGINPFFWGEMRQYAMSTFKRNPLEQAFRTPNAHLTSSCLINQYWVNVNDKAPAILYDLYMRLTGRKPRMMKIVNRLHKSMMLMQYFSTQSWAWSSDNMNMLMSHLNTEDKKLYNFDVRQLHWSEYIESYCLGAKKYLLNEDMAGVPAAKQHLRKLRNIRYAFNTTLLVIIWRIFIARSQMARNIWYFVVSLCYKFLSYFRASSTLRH

GgFAR1 = molecular target: T5, GgFAR1 (Gallus gallus, UniProt Q5ZM72); conditions: labelled acyl-CoA as co-substrate; pH 6.5, 37 C
T5 construct: gene FAR1; uropygial gland cDNA in pYES-DEST52, S. cerevisiae BY4741 dga1 lro1 membranes
T5 sequence (Q5ZM72 1-515): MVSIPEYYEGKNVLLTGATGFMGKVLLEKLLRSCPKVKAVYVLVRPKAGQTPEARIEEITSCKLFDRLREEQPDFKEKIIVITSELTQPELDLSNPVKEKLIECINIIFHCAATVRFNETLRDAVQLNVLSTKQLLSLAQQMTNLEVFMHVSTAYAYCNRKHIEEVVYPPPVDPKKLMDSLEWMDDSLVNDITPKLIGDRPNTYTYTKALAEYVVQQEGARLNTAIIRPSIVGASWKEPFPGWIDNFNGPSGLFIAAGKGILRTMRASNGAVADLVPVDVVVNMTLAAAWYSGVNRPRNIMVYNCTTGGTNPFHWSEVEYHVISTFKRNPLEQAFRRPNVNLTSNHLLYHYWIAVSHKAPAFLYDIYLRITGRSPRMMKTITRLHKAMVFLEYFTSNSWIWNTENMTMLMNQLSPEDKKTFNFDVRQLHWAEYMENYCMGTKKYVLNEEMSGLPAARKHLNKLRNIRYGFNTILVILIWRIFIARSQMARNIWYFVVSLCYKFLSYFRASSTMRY

Row | SMILES | radio-TLC assay of yeast membrane fraction (alcohols + aldehydes) (AdFAR1; 20 uM acyl-CoA, 5 mM NADPH, 1 mM MgCl2, 16 uM BSA, labelled compound) | radio-TLC assay of yeast membrane fraction (alcohols + aldehydes) (TaFAR1) | radio-TLC assay of yeast membrane fraction (alcohols + aldehydes) (AdFAR1; labelled acyl-CoA as co-substrate) | radio-TLC assay of yeast membrane fraction (alcohols + aldehydes) (GgFAR2) | radio-TLC assay of yeast membrane fraction (alcohols + aldehydes) (TaFAR2) | radio-TLC assay of yeast membrane fraction (alcohols + aldehydes) (GgFAR1)
1 | CCCCCCCCCCCCCCCC(=O)SCCNC(=O)CCNC(=O)[C@H](O)C(C)(C)COP(=O)(O)OP(=O)(O)OC[C@H]1O[C@@H](n2cnc3c(N)ncnc32)[C@H](O)[C@@H]1OP(=O)(O)O [16:0-CoA] | only AdFAR1 of goose was almost equally active with all substrates |  |  |  |  | 
2 | NC(=O)C1=CN([C@@H]2O[C@H](COP(=O)(O)OP(=O)(O)OC[C@H]3O[C@@H](n4cnc5c(N)ncnc54)[C@H](OP(=O)(O)O)[C@@H]3O)[C@@H](O)[C@H]2O)C=CC1 [NADPH] |  | All FAR enzymes required NADPH as electron donor | All FAR enzymes required NADPH as electron donor | All FAR enzymes required NADPH as electron donor | All FAR enzymes required NADPH as electron donor | All FAR enzymes required NADPH as electron donor
